Measured values: US20260199289A1, “USE OF GLYCOGEN METABOLISM INHIBITORS FOR THE TREATMENT OF CANCER” (THE UNIVERSITY OF VERMONT AND STATE AGRICULTURAL COLLEGE, priority 2022, published 2026)
Entries after “also recorded” stand apart in the source; their conditions may differ.

Legend:
8505C cells [1] = assay: Glycogen content (colorimetric assay, TEM) in ATC cells; format: cell-based, human; conditions: for glycogen content: 8505C cells, overnight treatment
Experimental: Transmission Electron Microscopy of Glycogen Deposits—Cells were seeded in 10 cm dishes and allowed to adhere overnight. […] Cells were then rinsed with PBS and lifted with trypsin for preparation for TEM as described previously. Thwe et al., “Cell-intrinsic Glycogen Metabolism Supports Early Glycolytic Reprogramming Required for Dendritic Cell Immune Responses,” Cell Metabolism 26:558-567.e555 (2017), which is hereby incorporated by reference in its entirety.
PYGB RNA Interference—For validating successful PYGB knockdown, 4.0×10^4 cells were plated in 12 well plates containing 0.2% Lipofectamine™ 3000 Transfection Reagent and the indicated concentration of siRNA targeting PYGB or control siRNA in 1 ml CTM. RNA was extracted 72 hours later for RT-qPCR analysis and protein was extracted 96 hours later for immunoblotting. For measuring the effect of PYGB knockdown on cell viability, 1.0×10^3 cells were seeded in 96 well plates with 0.15% Lipofectamine™ 3000 Transfection Reagent and the indicated concentration of siRNA targeting PYGB or control siRNA in 200 μl CTM for 7 days before conducting the SRB assay. For measuring the effect of PYGB knockdown on glycogen content, 6.5×10^5 cells were seeded in 10 cm dishes with 0.2% Lipofectamine™ 3000 Transfection Reagent and the indicated concentration of siRNA targeting PYGB or control siRNA in 10 ml CTM for 4 days preceding cell lysis for glycogen determination.
Quantification of Levels of Glycogen, Glucose-1-Phosphate, Glucose-6-Phosphate, Lactate, ATP, Glucose, NADPH, and Glutathione—Briefly, cells were seeded in 10 cm dishes (for measuring glycogen and NADPH), 6 well plates (GIP, G6P, lactate, glucose, and glutathione), or 96 well plates (ATP) and allowed to adhere overnight. CTM was aspirated and cells were rinsed with PBS before application of compounds dissolved in CTM for 24 hours, at which point cells were ~90% confluent. CTM was then aspirated, cells were rinsed with PBS, and lysed according to the respective manufacturer protocol (see Table 4) for metabolite analysis.

[2] = cited from earlier work
8505C cells [3] = assay: SRB cell viability assay in ATC cells; format: cell-based, human; conditions: 8505C ATC cells; indicated concentrations, 48 hours
Experimental: In Vitro Cell Staining for Measuring Drug Efficacy—Thyroid cells (4.0×10^3) were seeded in 96 well plates with 100 μl CTM and allowed to adhere overnight. 100 μl of CTM containing 2× concentration of compound was overlayed in each well for 48 hours unless otherwise indicated. Each well then received 100 μl of 10% w/v cold trichloroacetic acid (Fisher) and incubated at 4° C. for 1 hour to fix the cells. Each well was rinsed 3× with DI H2O and stained with 100 μl 0.057% w/v sulforhodamine B (SRB, Sigma-Aldrich) for 30 minutes at room temperature in the dark. Wells were washed 4× with 300 μl 1% v/v acetic acid (Fisher), and remaining SRB stain was solubilized with 200 μl of 10 mM Tris buffer, pH 10.5 (Fisher). Absorbance was measured at 564 nm with a Synergy 2 Multi-Detection Microplate Reader (Agilent Technologies) and normalized to a vehicle control. Drug synergy was evaluated using the coefficient of drug interaction (CDI) formula: CDI=AB/(A×B)×100, where AB is the percent remaining cells of an indicated combination treatment, A is the average percent remaining cells of agent 1 alone, and B is the average percent remaining cells of agent 2 alone. […] Hao et al., “Effect of Lumiracoxib on Proliferation and Apoptosis of Human Nonsmall Cell Lung Cancer Cells In vitro,” Chin Med J (Engl) 121:602-607 (2008), which is hereby incorporated by reference in its entirety. […]

[4] = tested on: mouse embryonic fibroblasts; conditions: cited from earlier work
OCUT-2 cells = assay: SRB cell viability assay in OCUT-2 cells; format: cell-based, human; conditions: indicated concentrations, 48 hours
Experimental: In Vitro Cell Staining for Measuring Drug Efficacy—Thyroid cells (4.0×10^3) were seeded in 96 well plates with 100 μl CTM and allowed to adhere overnight. 100 μl of CTM containing 2× concentration of compound was overlayed in each well for 48 hours unless otherwise indicated. Each well then received 100 μl of 10% w/v cold trichloroacetic acid (Fisher) and incubated at 4° C. for 1 hour to fix the cells. Each well was rinsed 3× with DI H2O and stained with 100 μl 0.057% w/v sulforhodamine B (SRB, Sigma-Aldrich) for 30 minutes at room temperature in the dark. Wells were washed 4× with 300 μl 1% v/v acetic acid (Fisher), and remaining SRB stain was solubilized with 200 μl of 10 mM Tris buffer, pH 10.5 (Fisher). Absorbance was measured at 564 nm with a Synergy 2 Multi-Detection Microplate Reader (Agilent Technologies) and normalized to a vehicle control. Drug synergy was evaluated using the coefficient of drug interaction (CDI) formula: CDI=AB/(A×B)×100, where AB is the percent remaining cells of an indicated combination treatment, A is the average percent remaining cells of agent 1 alone, and B is the average percent remaining cells of agent 2 alone. […] Hao et al., “Effect of Lumiracoxib on Proliferation and Apoptosis of Human Nonsmall Cell Lung Cancer Cells In vitro,” Chin Med J (Engl) 121:602-607 (2008), which is hereby incorporated by reference in its entirety.

cell lysates = conditions: cited from earlier work
purified GYS1 = target: T1, purified GYS1 (Homo sapiens, UniProt P13807); conditions: cited from earlier work
T1 sequence (P13807 1-737): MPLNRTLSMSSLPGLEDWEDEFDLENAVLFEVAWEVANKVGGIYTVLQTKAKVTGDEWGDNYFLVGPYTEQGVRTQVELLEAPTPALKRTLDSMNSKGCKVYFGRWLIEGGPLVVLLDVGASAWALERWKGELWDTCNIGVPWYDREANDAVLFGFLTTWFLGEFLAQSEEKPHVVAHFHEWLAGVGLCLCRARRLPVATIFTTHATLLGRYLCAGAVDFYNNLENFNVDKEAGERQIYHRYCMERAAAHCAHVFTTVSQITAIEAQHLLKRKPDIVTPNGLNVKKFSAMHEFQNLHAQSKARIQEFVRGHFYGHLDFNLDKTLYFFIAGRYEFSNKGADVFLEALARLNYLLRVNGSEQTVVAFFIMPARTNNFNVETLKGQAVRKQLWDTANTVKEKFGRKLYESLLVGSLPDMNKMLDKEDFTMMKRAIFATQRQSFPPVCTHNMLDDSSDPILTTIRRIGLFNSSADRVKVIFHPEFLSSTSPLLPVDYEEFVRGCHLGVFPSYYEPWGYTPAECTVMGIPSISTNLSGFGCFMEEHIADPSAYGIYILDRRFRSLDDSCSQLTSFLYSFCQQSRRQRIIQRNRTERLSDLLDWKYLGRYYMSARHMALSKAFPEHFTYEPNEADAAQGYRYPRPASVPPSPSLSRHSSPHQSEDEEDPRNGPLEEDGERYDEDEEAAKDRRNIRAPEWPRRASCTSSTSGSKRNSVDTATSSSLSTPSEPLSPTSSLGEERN

Row | Structure (SMILES) | glycogen content (8505C cells [1]) | glycogen storage in rat brains [2] | cell viability (SRB assay) (8505C cells [3]) | decrease of glycogen stores (8505C cells [1]; ATC cells, stated as comparable to the literature value) | decrease of glycogen stores [4] | cell viability (SRB assay) (OCUT-2 cells) | 14C-glucose incorporation (cell lysates) | inhibition of purified GYS1 (purified GYS1)
1 | CON(C)C(=O)[C@H](O)[C@H](Cc1ccccc1)NC(=O)c1cc2cc(Cl)ccc2[nH]1 [CP316819, 5-chloro-N-[(2S,3R)-3-hydroxy-4-[methoxy(methyl)amino]-4-oxo-1-phenylbutan-2-yl]-1H-indole-2-carboxamide] | increased the glycogen content | enhanced glycogen storage in rat brains | sensitive; also recorded: limited cell viability |  |  |  |  | 
2 | COc1ccccc1O [guaiacol] | decrease |  | decrease ATC cell viability | ~50% | 50% | decrease ATC cell viability |  | 
3 | Oc1ccc(-c2c(-c3ccc(O)c(O)c3O)n[nH]c2C(F)(F)F)cc1 [yGsy2p-IN-1] | decrease glycogen content; also recorded: successfully reduced glycogen levels |  | limit ATC viability; also recorded: limited cell viability in ATC cells |  |  |  | decreased 14C-glucose incorporation in cell lysates | robustly inhibited purified GYS1
